From ChEMBL document CHEMBL6121025, “Novel Compounds as CDK2 Inhibitors for Treating Cancer” (ACS Med Chem Lett, 2025)

These compounds were tested against Cyclin-dependent kinase 2/cyclin E1 (Homo sapiens) (UniProt P24864+P24941) (assay: Inhibition of C-terminal Avi-tagged CDK2/Cyclin E1 (unknown origin) extracted from Escherichia coli assessed as reduction in RB1 phosphorylation at S780 residue incubated for 60 mins in the presence of ATP by TR-FRET assay).
Assay type: protein-complex assay

| INH [µM] | SMILES |
| --- | --- |
| 0.006 | O=C1N([C@@H]2CCC[C@@H](O)C2)c2nc(Nc3c[nH]nc3O[C@H]3CC3(F)F)ncc2C12CC2 |
| 0.006 | O=C1N([C@@H]2CCC[C@@H](O)C2)c2nc(Nc3c[nH]nc3O[C@@H]3CC3(F)F)ncc2C12CC2 |

The remaining lines, values behind:

| SMILES | INH [µM] |
| --- | --- |
| O=C1N([C@@H]2CCC[C@@H](O)C2)c2nc(Nc3c[nH]nc3-c3cnn4cccnc34)ncc2C12CC2 | 0.006 |
| O=C1N([C@@H]2CCC[C@@H](O)C2)c2nc(Nc3c[nH]nc3OCC(F)F)ncc2C12CC2 | 0.005 |
| O=C1N([C@@H]2CCC[C@@H](O)C2)c2nc(Nc3c[nH]nc3[C@H]3CC3(F)F)ncc2C12CC2 | 0.006 |
| O=C1N([C@@H]2CCC[C@@H](O)C2)c2nc(Nc3c[nH]nc3C(F)F)ncc2C12CC2 | 0.007 |
